# In publication PMC11062899, “De novo development of small cyclic peptides that are orally bioavailable” (Nature Chemical Biology, 2023):
# Values joined by “and” are separate entries in the source; they are usually repeats but may differ in a detail not shown here. Equal entries are not always repeated. Where two headings read alike, the source gives them in different places.
# Experiments:
# [1] = target: human α-thrombin (Homo sapiens, UniProt P00734); experiment: Protease inhibition, Ki for human α-thrombin (fluorogenic substrate Z-Gly-Gly-Arg-AMC); format: biochemical; details: for slope normalized to DMSO, human alpha thrombin inhibition: replicates R1-R3
# Procedure: (§1) The inhibition constants (Ki) of cyclic peptides were calculated by measuring thrombin inhibition in the presence of different concentrations of the cyclic peptides. […] Human α-thrombin (Molecular Innovations) and rat α-thrombin (Molecular Innovations) were used at final concentrations of 2 nM and 3 nM, respectively, and fluorogenic substrate (Z-Gly-Gly-Arg-AMC, Bachem) was used at a concentration of 50 μM. Enzymatic activity was determined by measuring fluorescent gain on a Tecan Infinite M200 Pro microplate reader (excitation: 360 nm, emission: 465 nm) or a PHERAstar FSX microplate reader (excitation: 380 nm, emission: 440 nm) for 30 min at 25 °C with a fluorescent readout every 3 min. The two instruments were controlled with Tecan Infinite M200 Pro instrument software (iControl, version 1.12) and PHERAstar FSX software (version 5.70, edition 8), respectively. Protease inhibition was calculated by comparing the enzymatic activity to a control without cyclic peptide.
# (§2) Half maximal inhibitory concentration (IC50) values were determined using a four-parameter logistic regression model in GraphPad Prism 9 to fit sigmoidal curves to the acquired data points according to equation (2) below.2 y=b+a−b/1+10^(logIC50−x)p where a and b represent the measured inhibition maximum and minimum, respectively; x is the logarithm of peptide concentration; y is the thrombin activity compared to a control without the cyclic peptide; and p is the Hill coefficient.
# (§3) Ki values were calculated using the IC50 and the Cheng–Prusoff equation (equation (3)).3 Ki=IC50/1+S0/Km where Km is the Michaelis–Menten constant of the enzyme for the substrate used in the assay, and [S]0 is the initial substrate concentration.
# [2] = target: T1, rat α-thrombin (Rattus norvegicus, UniProt P18292); experiment: Protease inhibition, Ki for rat α-thrombin (fluorogenic substrate Z-Gly-Gly-Arg-AMC); format: biochemical; details: for slope normalized to DMSO, rat alpha thrombin inhibition: replicates R1-R3
# T1 construct: rat α-thrombin (Molecular Innovations) were used at final concentrations of 2 nM and 3 nM; purchased Molecular Innovations
# Procedure: as §1, §2, §3
# [3] = Passive artificial membrane permeability (PAMPA);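 on Permeability% Average: top well sample relative to theoretical equilibrium sample by TIC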
smiles,measurement,setting,value
O=C1C[C@H]2CCCN2C(=O)[C@H](Cc2ccccc2)NC(=O)[C@@H](NC(=O)c2ccc(Cl)cc2F)CCC=CCCCCN1 [compound 45],Ki,"[1]; average of R1-R3, read-out: Ki Average, human alpha thrombin inhibition",204 nM
same,IC50,"[1]; individual replicates R1-R3, read-out: IC50, human alpha thrombin inhibition",273 nM and 252 nM and 268 nM
same,Ki,"[1]; individual replicates R1-R3, read-out: Ki, human alpha thrombin inhibition",210 nM (2×) and 194 nM (2×) and 207 nM (2×)
same,"slope normalized to DMSO, human alpha thrombin inhibition",[1]; peptide 1.00E+02 uM,11.3 and 11.6 and 10.6
same,"slope normalized to DMSO, human alpha thrombin inhibition",[1]; peptide 1.19E-05 uM,102.6 and 106.2 and 105.7
same,"slope normalized to DMSO, human alpha thrombin inhibition",[1]; peptide 1.22E-02 uM,98.0 and 95.4 and 97.5
same,"slope normalized to DMSO, human alpha thrombin inhibition",[1]; peptide 1.25E+01 uM,13.9 and 11.8 and 11.3
same,"slope normalized to DMSO, human alpha thrombin inhibition",[1]; peptide 1.53E-03 uM,101.7 and 103.3 and 104.5
same,"slope normalized to DMSO, human alpha thrombin inhibition",[1]; peptide 1.56E+00 uM,26.6 and 25.5 (2×)
same,"slope normalized to DMSO, human alpha thrombin inhibition",[1]; peptide 1.91E-04 uM,103.0 and 99.2 and 105.0
same,"slope normalized to DMSO, human alpha thrombin inhibition",[1]; peptide 1.95E-01 uM,64.4 and 63.8 and 63.5
same,"slope normalized to DMSO, human alpha thrombin inhibition",[1]; peptide 2.38E-05 uM,102.9 and 103.4 and 104.0
same,"slope normalized to DMSO, human alpha thrombin inhibition",[1]; peptide 2.44E-02 uM,93.3 and 91.7 and 93.0
same,"slope normalized to DMSO, human alpha thrombin inhibition",[1]; peptide 2.50E+01 uM,12.2 and 11.9 and 11.6
same,"slope normalized to DMSO, human alpha thrombin inhibition",[1]; peptide 3.05E-03 uM,101.3 and 101.9 and 102.4
same,"slope normalized to DMSO, human alpha thrombin inhibition",[1]; peptide 3.12E+00 uM,19.4 (2×) and 18.4
same,"slope normalized to DMSO, human alpha thrombin inhibition",[1]; peptide 3.81E-04 uM,103.1 and 102.3 and 104.4
same,"slope normalized to DMSO, human alpha thrombin inhibition",[1]; peptide 3.91E-01 uM,49.6 and 45.7 and 49.0
same,"slope normalized to DMSO, human alpha thrombin inhibition",[1]; peptide 4.77E-05 uM,101.9 and 103.1 and 105.2
same,"slope normalized to DMSO, human alpha thrombin inhibition",[1]; peptide 4.88E-02 uM,85.5 and 84.9 and 86.4
same,"slope normalized to DMSO, human alpha thrombin inhibition",[1]; peptide 5.00E+01 uM,11.7 and 11.4 and 7.8
same,"slope normalized to DMSO, human alpha thrombin inhibition",[1]; peptide 6.10E-03 uM,99.7 and 99.5 and 102.0
same,"slope normalized to DMSO, human alpha thrombin inhibition",[1]; peptide 6.25E+00 uM,15.9 and 15.6 and 14.9
same,"slope normalized to DMSO, human alpha thrombin inhibition",[1]; peptide 7.63E-04 uM,102.4 (2×) and 103.3
same,"slope normalized to DMSO, human alpha thrombin inhibition",[1]; peptide 7.81E-01 uM,36.6 and 35.0 and 35.1
same,"slope normalized to DMSO, human alpha thrombin inhibition",[1]; peptide 9.54E-05 uM,103.4 and 102.3 and 101.0
same,"slope normalized to DMSO, human alpha thrombin inhibition",[1]; peptide 9.77E-02 uM,76.3 and 76.5 and 77.1
same,Ki,"[2]; average of R1-R3, read-out: Ki Average, rat alpha thrombin inhibition",36.4 nM
same,IC50,"[2]; individual replicates R1-R3, read-out: IC50, rat alpha thrombin inhibition",67 nM and 66.1 nM and 64.2 nM
same,Ki,"[2]; individual replicates R1-R3, read-out: Ki, rat alpha thrombin inhibition",37.1 nM and 36.6 nM and 35.6 nM
same,"slope normalized to DMSO, rat alpha thrombin inhibition",[2]; peptide 1.00E+02 uM,6.9 and 7.8 and 7.9
same,"slope normalized to DMSO, rat alpha thrombin inhibition",[2]; peptide 1.19E-05 uM,99.4 and 99.8 and 100.7
same,"slope normalized to DMSO, rat alpha thrombin inhibition",[2]; peptide 1.22E-02 uM,80.5 and 81.1 and 80.7
same,"slope normalized to DMSO, rat alpha thrombin inhibition",[2]; peptide 1.25E+01 uM,8.5 and 8.3 (2×)
same,"slope normalized to DMSO, rat alpha thrombin inhibition",[2]; peptide 1.53E-03 uM,95.1 and 94.7 (2×)
same,"slope normalized to DMSO, rat alpha thrombin inhibition",[2]; peptide 1.56E+00 uM,12.6 and 12.3 and 12.5
same,"slope normalized to DMSO, rat alpha thrombin inhibition",[2]; peptide 1.91E-04 uM,97.1 (2×) and 95.3
same,"slope normalized to DMSO, rat alpha thrombin inhibition",[2]; peptide 1.95E-01 uM,34.2 and 33.8 and 33.2
same,"slope normalized to DMSO, rat alpha thrombin inhibition",[2]; peptide 2.38E-05 uM,93.5 and 98.9 and 98.6
same,"slope normalized to DMSO, rat alpha thrombin inhibition",[2]; peptide 2.44E-02 uM,71.8 and 70.1 and 71.0
same,"slope normalized to DMSO, rat alpha thrombin inhibition",[2]; peptide 2.50E+01 uM,8.3 and 8.0 and 8.8
same,"slope normalized to DMSO, rat alpha thrombin inhibition",[2]; peptide 3.05E-03 uM,90.8 and 91.5 and 91.2
same,"slope normalized to DMSO, rat alpha thrombin inhibition",[2]; peptide 3.12E+00 uM,10.1 (2×) and 10.3
same,"slope normalized to DMSO, rat alpha thrombin inhibition",[2]; peptide 3.81E-04 uM,97.2 and 95.5 and 95.9
same,"slope normalized to DMSO, rat alpha thrombin inhibition",[2]; peptide 3.91E-01 uM,22.7 and 22.8 and 22.5
same,"slope normalized to DMSO, rat alpha thrombin inhibition",[2]; peptide 4.77E-05 uM,97.5 and 97.4 and 98.2
same,"slope normalized to DMSO, rat alpha thrombin inhibition",[2]; peptide 4.88E-02 uM,57.9 and 58.1 and 57.0
same,"slope normalized to DMSO, rat alpha thrombin inhibition",[2]; peptide 5.00E+01 uM,8.1 (2×) and 8.0
same,"slope normalized to DMSO, rat alpha thrombin inhibition",[2]; peptide 6.10E-03 uM,75.2 and 85.9 and 86.8
same,"slope normalized to DMSO, rat alpha thrombin inhibition",[2]; peptide 6.25E+00 uM,9.3 (2×) and 10.3
same,"slope normalized to DMSO, rat alpha thrombin inhibition",[2]; peptide 7.63E-04 uM,94.5 (2×) and 95.4
same,"slope normalized to DMSO, rat alpha thrombin inhibition",[2]; peptide 7.81E-01 uM,16.5 and 16.1 and 16.2
same,"slope normalized to DMSO, rat alpha thrombin inhibition",[2]; peptide 9.54E-05 uM,96.4 and 97.0 and 98.4
same,"slope normalized to DMSO, rat alpha thrombin inhibition",[2]; peptide 9.77E-02 uM,46.4 and 46.1 and 46.7
same,PAMPA permeability: % permeability,"[3]; 50 μM, 12–18 h, acceptor concentration relative to equilibrium",66 ± 14%
same,Permeability% (single replicates R1–R3),"[3]; 50 μM, 12 h (Fig. 6d)",56.67% and 58.98% and 81.87%
same,Permeability% Average,"[3]; 50 μM, 12 h (Fig. 6d)",65.8%
same,Papp at 50 μM,"[3]; PAMPA, pH 7.4",10.7 ×10⁻⁶ cm/s
